Experimental data taken from patent US6872690B2, “Herbicidal 2-alkynyl-pyri (mi) dines” (WYETH, priority 2001, dated 2005).

Assays:
Assay type in all cases: in vivo
Abutilon theophrasti [1] = assay: Pre-emergence test; settings: 0.400 kg/ha, 3 weeks after treatment
Method: (§1) To evaluate their herbicidal activity, compounds according to the invention are tested using a representative range of plants:
(§2) The pre-emergence tests involve spraying a liquid formulation of the compound onto the soil in which the seeds of the plant species mentioned above has recently been sown.
(§3) The soil used in the tests is a prepared horticultural loam. The formulations used in the tests are prepared from solutions of the test compounds in acetone containing 0.4% by weight of an alkyl-phenol/ethylene oxide condensate available under the trade mark TRITON X-155. These acetone solutions are diluted with water and the resulting formulations applied at dosage levels corresponding to 0.013 kg, 0.025 kg, 0.100 kg or 0.400 kg of active material per hectare in a volume equivalent to 900 litres per hectare. In these tests untreated sown soil are used as controls. From 2 to 4 weeks after treatment, the tests are terminated and each pot is examined and rated according to the rating system set forth below: […]

Alopecurus myosuroides [2] = assay: Pre-emergence test; settings: 3 weeks after treatment
Method: as §1, §2, §3

Cassia obtusifolia [3] = assay: Pre-emergence test; settings: 3 weeks after treatment
Method: as §1, §2, §3

Digitaria sanguinalis [4] = assay: Pre-emergence test; settings: 3 weeks after treatment
Method: as §1, §2, §3

Echinochloa crus-galli [5] = assay: Pre-emergence test; settings: 3 weeks after treatment
Method: as §1, §2, §3

Galium aparine [6] = assay: Pre-emergence test; settings: 3 weeks after treatment
Method: as §1, §2, §3

Glycine max [7] = assay: Pre-emergence test; settings: 0.400 kg/ha, 3 weeks after treatment
Method: as §1, §2, §3

Ipomoea hederacea [8] = assay: Pre-emergence test; settings: 0.400 kg/ha, 3 weeks after treatment
Method: as §1, §2, §3

Lamium purpureum = assay: Pre-emergence test; settings: 3 weeks after treatment
Method: as §1, §2, §3

Matricaria inodora [9] = assay: Pre-emergence test; settings: 3 weeks after treatment
Method: as §1, §2, §3

Orysa sativa [10] = assay: Pre-emergence test; settings: 3 weeks after treatment
Method: as §1, §2, §3

Setaria viridis [11] = assay: Pre-emergence test; settings: 3 weeks after treatment
Method: as §1, §2, §3

Stellaria media [12] = assay: Pre-emergence test; settings: 3 weeks after treatment
Method: as §1, §2, §3

Triticum aestivum [13] = assay: Pre-emergence test; settings: 3 weeks after treatment
Method: as §1, §2, §3

Zea mays [14] = assay: Pre-emergence test; settings: 3 weeks after treatment
Method: as §1, §2, §3

Abutilon theophrasti [15] = assay: Post-emergence herbicidal activity test; settings: 2-4 weeks after treatment
Method: as §1
(§4) These acetone solutions are diluted with water and the resulting formulations applied at dosage levels equivalent of about 0.025 to 0. 4 kg per hectare of test compound per pot. After spraying the plants are placed on greenhouse benches and are cared for in the usual manner, commensurate with conventional greenhouse practices. From 2 to 4 weeks after treatment, the seedling plants are examined and rated according to the rating system provided above.

Alopecurus myosuroides [16] = assay: Post-emergence herbicidal activity test; settings: 2-4 weeks after treatment
Method: as §1, §4

Cassia obtusifolia [17] = assay: Post-emergence herbicidal activity test; settings: 2-4 weeks after treatment
Method: as §1, §4

Digitaria sanguinalis [18] = assay: Post-emergence herbicidal activity test; settings: 2-4 weeks after treatment
Method: as §1, §4

Echinochloa crus-galli [19] = assay: Post-emergence herbicidal activity test; settings: 2-4 weeks after treatment
Method: as §1, §4

Galium aparine [20] = assay: Post-emergence herbicidal activity test; settings: 2-4 weeks after treatment
Method: as §1, §4

Glycine max [21] = assay: Post-emergence herbicidal activity test; settings: 2-4 weeks after treatment
Method: as §1, §4

Ipomoea hederacea [22] = assay: Post-emergence herbicidal activity test; settings: 2-4 weeks after treatment
Method: as §1, §4

Matricaria inodora [23] = assay: Post-emergence herbicidal activity test; settings: 2-4 weeks after treatment
Method: as §1, §4

Orysa sativa [24] = assay: Post-emergence herbicidal activity test; settings: 2-4 weeks after treatment
Method: as §1, §4

Setaria viridis [25] = assay: Post-emergence herbicidal activity test; settings: 2-4 weeks after treatment
Method: as §1, §4

Stellaria media [26] = assay: Post-emergence herbicidal activity test; settings: 2-4 weeks after treatment
Method: as §1, §4

Triticum aestivum [27] = assay: Post-emergence herbicidal activity test; settings: 2-4 weeks after treatment
Method: as §1, §4

Zea mays [28] = assay: Post-emergence herbicidal activity test; settings: 2-4 weeks after treatment
Method: as §1, §4

Cn1nc(C(F)(F)F)cc1Oc1cccc(C#Cc2ccccc2)n1 [Example 31]
Assessment (pre-emergence application) ABUTH (Abutilon theophrasti [1]): 2 (2-Slight effect)
Assessment (pre-emergence application) ALOMY (Alopecurus myosuroides [2]; 0.025 kg/ha): 0 (0-No effect)
Assessment (pre-emergence application) ALOMY (Alopecurus myosuroides [2]; 0.100 kg/ha): 1 (1-Trace effect)
Assessment (pre-emergence application) ALOMY (Alopecurus myosuroides [2]; 0.400 kg/ha): 3 (3-Moderate effect)
Assessment (pre-emergence application) CASOB (Cassia obtusifolia [3]; 0.025 kg/ha): 1 (1-Trace effect)
Assessment (pre-emergence application) CASOB (Cassia obtusifolia [3]; 0.100 kg/ha): 3 (3-Moderate effect)
Assessment (pre-emergence application) CASOB (Cassia obtusifolia [3]; 0.400 kg/ha): 3 (3-Moderate effect)
Assessment (pre-emergence application) DIGSA (Digitaria sanguinalis [4]; 0.025 kg/ha): 2 (2-Slight effect)
Assessment (pre-emergence application) DIGSA (Digitaria sanguinalis [4]; 0.100 kg/ha): 5 (5-Definite injury)
Assessment (pre-emergence application) DIGSA (Digitaria sanguinalis [4]; 0.400 kg/ha): 8 (8-Approaching complete kill)
Assessment (pre-emergence application) ECHCG (Echinochloa crus-galli [5]; 0.025 kg/ha): 0 (0-No effect)
Assessment (pre-emergence application) ECHCG (Echinochloa crus-galli [5]; 0.100 kg/ha): 2 (2-Slight effect)
Assessment (pre-emergence application) ECHCG (Echinochloa crus-galli [5]; 0.400 kg/ha): 5 (5-Definite injury)
Assessment (pre-emergence application) GALAP (Galium aparine [6]; 0.025 kg/ha): 1 (1-Trace effect)
Assessment (pre-emergence application) GALAP (Galium aparine [6]; 0.100 kg/ha): 2 (2-Slight effect)
Assessment (pre-emergence application) GLXMA (Glycine max [7]): 1 (1-Trace effect)
Assessment (pre-emergence application) IPOHE (Ipomoea hederacea [8]): 2 (2-Slight effect)
Assessment (pre-emergence application) LAMPU (Lamium purpureum; 0.025 kg/ha): 7 (7-Good herbicidal effect)
Assessment (pre-emergence application) LAMPU (Lamium purpureum; 0.100 kg/ha): 8 (8-Approaching complete kill)
Assessment (pre-emergence application) LAMPU (Lamium purpureum; 0.400 kg/ha): 8 (8-Approaching complete kill)
Assessment (pre-emergence application) MATIN (Matricaria inodora [9]; 0.025 kg/ha): 2 (2-Slight effect)
Assessment (pre-emergence application) MATIN (Matricaria inodora [9]; 0.100 kg/ha): 6 (6-Herbicidal effect)
Assessment (pre-emergence application) MATIN (Matricaria inodora [9]; 0.400 kg/ha): 7 (7-Good herbicidal effect)
Assessment (pre-emergence application) ORYSA (Orysa sativa [10]; 0.025 kg/ha): 0 (0-No effect)
Assessment (pre-emergence application) ORYSA (Orysa sativa [10]; 0.100 kg/ha): 1 (1-Trace effect)
Assessment (pre-emergence application) ORYSA (Orysa sativa [10]; 0.400 kg/ha): 1 (1-Trace effect)
Assessment (pre-emergence application) SETVI (Setaria viridis [11]; 0.025 kg/ha): 2 (2-Slight effect)
Assessment (pre-emergence application) SETVI (Setaria viridis [11]; 0.100 kg/ha): 6 (6-Herbicidal effect)
Assessment (pre-emergence application) SETVI (Setaria viridis [11]; 0.400 kg/ha): 8 (8-Approaching complete kill)
Assessment (pre-emergence application) STEME (Stellaria media [12]; 0.025 kg/ha): 2 (2-Slight effect)
Assessment (pre-emergence application) STEME (Stellaria media [12]; 0.100 kg/ha): 8 (8-Approaching complete kill)
Assessment (pre-emergence application) STEME (Stellaria media [12]; 0.400 kg/ha): 9 (9-Complete kill)
Assessment (pre-emergence application) TRZWA (Triticum aestivum [13]; 0.025 kg/ha): 0 (0-No effect)
Assessment (pre-emergence application) TRZWA (Triticum aestivum [13]; 0.100 kg/ha): 0 (0-No effect)
Assessment (pre-emergence application) TRZWA (Triticum aestivum [13]; 0.400 kg/ha): 0 (0-No effect)
Assessment (pre-emergence application) ZEAMX (Zea mays [14]; 0.025 kg/ha): 1 (1-Trace effect)
Assessment (pre-emergence application) ZEAMX (Zea mays [14]; 0.100 kg/ha): 2 (2-Slight effect)
Assessment (pre-emergence application) ZEAMX (Zea mays [14]; 0.400 kg/ha): 2 (2-Slight effect)
Post-emergence application ABUTH (Abutilon theophrasti [15]; 0.100 kg/ha): 3 (3-Moderate effect)
Post-emergence application ABUTH (Abutilon theophrasti [15]; 0.400 kg/ha): 5 (5-Definite injury)
Post-emergence application ALOMY (Alopecurus myosuroides [16]; 0.100 kg/ha): 3 (3-Moderate effect)
Post-emergence application ALOMY (Alopecurus myosuroides [16]; 0.400 kg/ha): 5 (5-Definite injury)
Post-emergence application CASOB (Cassia obtusifolia [17]; 0.100 kg/ha): 6 (6-Herbicidal effect)
Post-emergence application CASOB (Cassia obtusifolia [17]; 0.400 kg/ha): 6 (6-Herbicidal effect)
Post-emergence application DIGSA (Digitaria sanguinalis [18]; 0.100 kg/ha): 4 (4-Injury)
Post-emergence application DIGSA (Digitaria sanguinalis [18]; 0.400 kg/ha): 4 (4-Injury)
Post-emergence application ECHCG (Echinochloa crus-galli [19]; 0.100 kg/ha): 3 (3-Moderate effect)
Post-emergence application ECHCG (Echinochloa crus-galli [19]; 0.400 kg/ha): 5 (5-Definite injury)
Post-emergence application GALAP (Galium aparine [20]; 0.100 kg/ha): 4 (4-Injury)
Post-emergence application GALAP (Galium aparine [20]; 0.400 kg/ha): 6 (6-Herbicidal effect)
Post-emergence application GLXMA (Glycine max [21]; 0.100 kg/ha): 4 (4-Injury)
Post-emergence application GLXMA (Glycine max [21]; 0.400 kg/ha): 4 (4-Injury)
Post-emergence application IPOHE (Ipomoea hederacea [22]; 0.100 kg/ha): 7 (7-Good herbicidal effect)
Post-emergence application IPOHE (Ipomoea hederacea [22]; 0.400 kg/ha): 8 (8-Approaching complete kill)
Post-emergence application MATIN (Matricaria inodora [23]; 0.100 kg/ha): 3 (3-Moderate effect)
Post-emergence application MATIN (Matricaria inodora [23]; 0.400 kg/ha): 4 (4-Injury)
Post-emergence application ORYSA (Orysa sativa [24]; 0.100 kg/ha): 1 (1-Trace effect)
Post-emergence application ORYSA (Orysa sativa [24]; 0.400 kg/ha): 2 (2-Slight effect)
Post-emergence application SETVI (Setaria viridis [25]; 0.100 kg/ha): 5 (5-Definite injury)
Post-emergence application SETVI (Setaria viridis [25]; 0.400 kg/ha): 7 (7-Good herbicidal effect)
Post-emergence application STEME (Stellaria media [26]; 0.100 kg/ha): 5 (5-Definite injury)
Post-emergence application STEME (Stellaria media [26]; 0.400 kg/ha): 6 (6-Herbicidal effect)
Post-emergence application TRZWA (Triticum aestivum [27]; 0.100 kg/ha): 1 (1-Trace effect)
Post-emergence application TRZWA (Triticum aestivum [27]; 0.400 kg/ha): 2 (2-Slight effect)
Post-emergence application ZEAMX (Zea mays [28]; 0.100 kg/ha): 2 (2-Slight effect)
Post-emergence application ZEAMX (Zea mays [28]; 0.400 kg/ha): 3 (3-Moderate effect)
